From ChEMBL document CHEMBL4732221, “Design, synthesis and bioactivity evaluation of novel pyrazole linked phenylthiazole derivatives in context of antibacterial activity” (Bioorg Med Chem Lett, 2021)
≈ marks a conversion by molar mass, not a printed value. Calls of active or inactive are those of the source. The rule behind the calls is not given here.

Legend:
Assay type in all cases: functional
Staphylococcus aureus [1] = test: Antibacterial activity against methicillin-resistant Staphylococcus aureus ATCC 43300 assessed as growth inhibition at 32 ug/ml after 18 hrs by monochromator plate assay relative to control
Acinetobacter baumannii [2] = test: Antibacterial activity against Acinetobacter baumannii ATCC 19606 assessed as growth inhibition after 18 hrs by monochromator plate assay
Pseudomonas aeruginosa [3] = test: Antibacterial activity against Pseudomonas aeruginosa ATCC 27853 assessed as growth inhibition after 18 hrs by monochromator plate assay
Klebsiella pneumoniae [4] = test: Antibacterial activity against Klebsiella pneumoniae ATCC 700603 assessed as growth inhibition after 18 hrs by monochromator plate assay
Escherichia coli [5] = test: Antibacterial activity against Escherichia coli ATCC 25922 assessed as growth inhibition after 18 hrs by monochromator plate assay
Staphylococcus aureus [6] = test: Antibacterial activity against methicillin-resistant Staphylococcus aureus ATCC 43300 assessed as growth inhibition after 18 hrs by monochromator plate assay
Cryptococcus neoformans [7] = test: Antifungal activity against Cryptococcus neoformans var. grubii ATCC 208821 assessed as growth inhibition at 32 ug/ml after 36 hrs by monochromator plate assay relative to control; conditions: dose 32.0 µg/ml
Candida albicans [8] = test: Antifungal activity against Candida albicans ATCC 90028 assessed as growth inhibition at 32 ug/ml after 36 hrs by monochromator plate assay relative to control; conditions: for inhibition: dose 32.0 µg/ml
Acinetobacter baumannii [9] = test: Antibacterial activity against Acinetobacter baumannii ATCC 19606 assessed as growth inhibition at 32 ug/ml after 18 hrs by monochromator plate assay relative to control; conditions: for inhibition: dose 32.0 µg/ml
Pseudomonas aeruginosa [10] = test: Antibacterial activity against Pseudomonas aeruginosa ATCC 27853 assessed as growth inhibition at 32 ug/ml after 18 hrs by monochromator plate assay relative to control; conditions: for inhibition: dose 32.0 µg/ml
Klebsiella pneumoniae [11] = test: Antibacterial activity against Klebsiella pneumoniae ATCC 700603 assessed as growth inhibition at 32 ug/ml after 18 hrs by microplate reader assay relative to control; conditions: for inhibition: dose 32.0 µg/ml
Escherichia coli [12] = test: Antibacterial activity against Escherichia coli ATCC 25922 assessed as growth inhibition at 32 ug/ml after 18 hrs by monochromator plate assay relative to control; conditions: for inhibition: dose 32.0 µg/ml
Candida albicans [13] = test: Antifungal activity against Candida albicans ATCC 90028 assessed as growth inhibition after 36 hrs by monochromator plate assay
Cryptococcus neoformans [14] = test: Antifungal activity against Cryptococcus neoformans var. grubii ATCC 208821) assessed as growth inhibition after 36 hrs by monochromator plate assay relative to control

Row | Structure (SMILES) | inhibition (Staphylococcus aureus [1]; dose 32.0 µg/ml) | MIC (Acinetobacter baumannii [2]) | MIC (Pseudomonas aeruginosa [3]) | MIC (Klebsiella pneumoniae [4]) | MIC (Escherichia coli [5]) | MIC (Staphylococcus aureus [6]) [µg/mL] | inhibition (Cryptococcus neoformans [7]) | inhibition at 32 µg/mL (Candida albicans [8]) [%] | inhibition (Acinetobacter baumannii [9]) | inhibition at 32 µg/mL (Pseudomonas aeruginosa [10]) [%] | inhibition at 32 µg/mL (Klebsiella pneumoniae [11]) [%] | inhibition (Escherichia coli [12]) | inhibition at 32 µg/mL (Staphylococcus aureus [1]) [%] | MIC (Candida albicans [13]) | MIC (Cryptococcus neoformans [14]) | inhibition (Candida albicans [8]) | inhibition at 32 µg/mL (Acinetobacter baumannii [9]) [%] | inhibition (Klebsiella pneumoniae [11]) | inhibition (Pseudomonas aeruginosa [10]) | inhibition at 32 µg/mL (Escherichia coli [12]) [%]
1 | CN[C@H](CC(C)C)C(=O)N[C@H]1C(=O)N[C@@H](CC(N)=O)C(=O)N[C@H]2C(=O)N[C@H]3C(=O)N[C@H](C(=O)N[C@H](C(=O)O)c4cc(O)cc(O)c4-c4cc3ccc4O)[C@H](O)c3ccc(c(Cl)c3)Oc3cc2cc(c3O[C@@H]2O[C@H](CO)[C@@H](O)[C@H](O)[C@H]2O[C@H]2C[C@](C)(N)[C@H](O)[C@H](C)O2)Oc2ccc(cc2Cl)[C@H]1O | inactive |  |  |  |  |  |  |  |  |  |  |  |  |  |  |  |  |  |  | 
2 | Cc1nc(-c2ccc(-c3ccccc3)cc2)sc1-c1cc(C(=O)Nc2ccc(C(F)(F)F)cc2)n[nH]1 |  | inactive | > 32 µg/mL | > 32 µg/mL | inactive | > 32 | inactive | 4.3 | inactive | 2.8 | 0.8 | inactive | 9.9 | > 32 µg/mL | inactive |  |  |  |  | 
3 | Cc1nc(-c2ccc(-c3ccccc3)cc2)sc1-c1cc(C(=O)NC2CCCCC2)n[nH]1 |  | > 32 µg/mL | > 32 µg/mL | > 32 µg/mL | inactive | > 32 | inactive |  |  | 6.6 | 6.9 | inactive | 84.9 | inactive | inactive | inactive | 2.9 |  |  | 
4 | CCOC(=O)c1cc(-c2sc(-c3ccc(-c4ccccc4)cc3)nc2C)[nH]n1 |  | > 32 µg/mL | > 32 µg/mL | inactive | inactive | > 32 | inactive | 5.6 |  | 1.5 |  | inactive | 13.6 | > 32 µg/mL | inactive |  | 2.8 | inactive |  | 
5 | CCCCc1ccc(NC(=O)c2cc(-c3sc(-c4ccc(-c5ccccc5)cc4)nc3C)[nH]n2)cc1 |  | > 32 µg/mL | > 32 µg/mL | > 32 µg/mL | inactive | > 32 | inactive | 13.5 |  | 5.6 | 3.3 | inactive | 9.5 | > 32 µg/mL | inactive |  | 4.1 |  |  | 
6 | CCOC(=O)c1cc(-c2sc(-c3ccc(I)cc3)nc2C)[nH]n1 |  | > 32 µg/mL | > 32 µg/mL | > 32 µg/mL | inactive | > 32 | inactive | 7.8 |  | 16.6 | 15.1 | inactive | 16.4 | > 32 µg/mL | inactive |  | 6.6 |  |  | 
7 | Cc1ccc(-c2ccc(-c3nc(C)c(-c4cc(C(=O)NC5CCCCC5)n[nH]4)s3)cc2)cc1 |  | > 32 µg/mL | > 32 µg/mL | > 32 µg/mL | inactive | > 32 | inactive | 18.9 |  | 16.5 | 12.2 | inactive | 23.8 | > 32 µg/mL | inactive |  | 4.3 |  |  | 
8 | OC(Cn1cncn1)(Cn1cncn1)c1ccc(F)cc1F [FLUCONAZOLE] |  |  |  |  |  |  | inactive |  |  |  |  |  |  | 0.125 µg/mL (≈ 0.408 µM) | 8 µg/mL (≈ 26.1 µM) | inactive |  |  |  | 
9 | Cc1nc(-c2ccc(I)cc2)sc1-c1cc(C(=O)Nc2ccccc2)n[nH]1 |  | inactive | > 32 µg/mL | > 32 µg/mL | inactive | > 32 | inactive | 4.6 | inactive | 11.1 | 4.7 | inactive | 19 | > 32 µg/mL | inactive |  |  |  |  | 
10 | Cc1ccc(NC(=O)c2cc(-c3sc(-c4ccc(-c5ccccc5)cc4)nc3C)[nH]n2)cc1C |  | inactive | > 32 µg/mL | > 32 µg/mL | inactive | > 32 | inactive | 10.1 | inactive | 2.2 | 3.5 | inactive | 10.8 | > 32 µg/mL | inactive |  |  |  |  | 
11 | Cc1cccc(-c2ccc(-c3nc(C)c(-c4cc(C(=O)NC5CCCCC5)n[nH]4)s3)cc2)c1C |  | inactive | > 32 µg/mL | inactive | inactive | 32 (≈ 68 µM) | inactive | 6.1 | inactive | 7.1 |  | inactive | 7.2 | > 32 µg/mL | inactive |  |  | inactive |  | 
12 | Cc1nc(-c2ccc(I)cc2)sc1-c1cc(C(=O)NC2CCCCC2)n[nH]1 |  | inactive | > 32 µg/mL | > 32 µg/mL | inactive | > 32 | inactive | 40.5 | inactive | 17.8 | 6.9 | inactive | 12.9 | > 32 µg/mL | inactive |  |  |  |  | 
13 | Cc1nc(-c2ccc(-c3cccc4c3OCO4)cc2)sc1-c1cc(C(=O)NC2CCCCC2)n[nH]1 |  | inactive | > 32 µg/mL | inactive | inactive | > 32 | inactive | 0.9 | inactive | 6.2 |  | inactive | 41.2 | > 32 µg/mL | inactive |  |  | inactive |  | 
14 | Cc1nc(-c2ccc(I)cc2)sc1-c1cc(C(=O)O)n[nH]1 |  | > 32 µg/mL | inactive | > 32 µg/mL | > 32 µg/mL | > 32 | inactive | 25.5 |  |  | 12 |  | 31.8 | > 32 µg/mL | inactive |  | 6.6 |  | inactive | 27.5
15 | Cc1nc(-c2ccc(-c3ccccc3)cc2)sc1-c1cc(C(=O)Nc2ccc(OC(F)F)cc2)n[nH]1 |  | inactive | > 32 µg/mL | > 32 µg/mL | inactive | > 32 | inactive | 4.7 | inactive | 7.1 | 5 | inactive | 3.6 | > 32 µg/mL | inactive |  |  |  |  | 
16 | Cc1nc(-c2ccc(-c3cccc4ccccc34)cc2)sc1-c1cc(C(=O)NC2CCCCC2)n[nH]1 |  | inactive | > 32 µg/mL | inactive | inactive | > 32 | inactive | 40.8 | inactive | 6.1 |  | inactive | 19.4 | > 32 µg/mL | inactive |  |  | inactive |  | 
17 | Cc1nc(-c2ccc(-c3ccccc3)cc2)sc1-c1cc(C(=O)NCC2CCCCC2)n[nH]1 |  | inactive | inactive | inactive | inactive | > 32 | inactive |  | inactive |  |  | inactive | 4.1 | inactive | inactive | inactive |  | inactive | inactive | 
18 | Cc1nc(-c2ccc(-c3ccccc3)cc2)sc1-c1cc(C(=O)Nc2ccc(F)cc2)n[nH]1 |  | > 32 µg/mL | > 32 µg/mL | > 32 µg/mL | inactive | > 32 | inactive | 19.6 |  | 5.1 | 4.4 | inactive | 15.1 | > 32 µg/mL | inactive |  | 3 |  |  | 
